In patent US20080227797A1, “Pyridopyrimidine Derivatives as Pde4 Inhibitors for the Treatment of Inflammatory and Immune Diseases” (ASTRAZENECA AB, priority 2005, published 2008):

Target: recombinant Human Phosphodiesterase B2 (PDE4B2) (Homo sapiens, UniProt Q07343)
Assay: Human Phosphodiesterase B2 Alpha Screen Assay
Type: biochemical
Details: cAMP substrate, Alpha Screen cAMP kit, 60 minutes at room temperature
How it was run: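 Recombinant human PDE4B2 preincubated 15 min at RT with compound in 50 mM Tris pH 7.5, 8.3 mM MgCl2, 1.7 mM EGTA, 0.01% Brij35, then reacted with cAMP for 60 min at RT. Stopped with EDTA; AlphaScreen beads with biotinylated cAMP incubated 5 h in the dark before reading. IC50 from curve fitting.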

recombinant Human Phosphodiesterase B2 (PDE4B2), sequence (Q07343 1-564 isoform Q07343-2): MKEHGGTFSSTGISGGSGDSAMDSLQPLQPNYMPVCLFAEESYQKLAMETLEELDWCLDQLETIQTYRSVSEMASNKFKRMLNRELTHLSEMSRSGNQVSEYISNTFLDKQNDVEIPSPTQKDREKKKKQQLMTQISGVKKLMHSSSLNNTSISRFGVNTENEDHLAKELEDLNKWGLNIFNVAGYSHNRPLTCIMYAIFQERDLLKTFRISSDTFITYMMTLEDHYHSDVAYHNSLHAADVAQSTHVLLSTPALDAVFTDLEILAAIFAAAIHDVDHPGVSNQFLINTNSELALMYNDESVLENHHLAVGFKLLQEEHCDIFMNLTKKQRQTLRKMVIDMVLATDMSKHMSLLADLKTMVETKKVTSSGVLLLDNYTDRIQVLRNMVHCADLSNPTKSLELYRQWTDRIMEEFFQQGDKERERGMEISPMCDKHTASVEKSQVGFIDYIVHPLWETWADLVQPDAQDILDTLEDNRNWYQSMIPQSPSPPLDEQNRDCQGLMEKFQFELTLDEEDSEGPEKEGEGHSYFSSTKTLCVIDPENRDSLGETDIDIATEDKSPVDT

| IC50 | SMILES |
| --- | --- |
| 8.8 nM | O=C(N[C@H]1CC[C@@H](n2c(=O)c3cc(F)cnc3n(-c3ccc(F)c(F)c3)c2=O)CC1)C1CC1 [Example 48, N-{cis-4-[1-(3,4-Difluorophenyl)-6-fluoro-2,4-dioxo-1,4-dihydropyrido[2,3-d]pyrimidin-3(2H)-yl]cyclohexyl}cyclopropanecarboxamide] |
| 1.9 nM | COC(=O)c1ccc(C(=O)N[C@H]2CC[C@@H](n3c(=O)c4cc(F)cnc4n(-c4ccc(F)c(F)c4)c3=O)CC2)cc1 [Example 25, methyl 4-[({cis-4-[1-(3,4-difluorophenyl)-6-fluoro-2,4-dioxo-1,4-dihydropyrido[2,3-d]pyrimidin-3(2H)-yl]cyclohexyl}amino)carbonyl]benzoate] |
| 7.83 nM | CC1=C(C(=O)N[C@H]2CC[C@@H](n3c(=O)c4cc(F)cnc4n(-c4ccc(F)c(F)c4)c3=O)CC2)SC2=NCCCN21 [Example 92, N-{cis-4-[1-(3,4-difluorophenyl)-6-fluoro-2,4-dioxo-1,4-dihydropyrido[2,3-d]pyrimidin-3(2H)-yl]cyclohexyl}-3-methyl-6,7-dihydro-5H-[1,3]thiazolo[3,2-a]pyrimidine-2-carboxamide] |
| 432 nM | CS(=O)(=O)c1cccc(-n2c(=O)n([C@H]3CC[C@@H](NC(=O)CO)CC3)c(=O)c3cc(F)cnc32)c1 [Example 44, N-{cis-4-[6-fluoro-1-[3-(methylsulfonyl)phenyl]-2,4-dioxo-1,4-dihydropyrido[2,3-d]pyrimidin-3(2H)-yl]cyclohexyl}-2-hydroxyacetamide] |
| 5.2 nM | COC(=O)c1cccc(-n2c(=O)n([C@H]3CC[C@@H](NC(=O)C4CCC4)CC3)c(=O)c3cc(F)cnc32)c1 [Example 61, methyl 3-[3-{cis-4-[(cyclobutylcarbonyl)amino]cyclohexyl}-6-fluoro-2,4-dioxo-3,4-dihydropyrido[2,3-d]pyrimidin-1(2H)-yl]benzoate] |
| 1 nM | O=C(N[C@H]1CC[C@@H](n2c(=O)c3cc(F)cnc3n(-c3ccc(F)c(F)c3)c2=O)CC1)[C@H](O)C1CCCCC1 [Example 22, (2R)-2-cyclohexyl-N-{cis-4-[1-(3,4-difluorophenyl)-6-fluoro-2,4-dioxo-1,4-dihydropyrido[2,3-d]pyrimidin-3(2H)-yl]cyclohexyl}-2-hydroxyacetamide] |
| 51.9 nM | CS(=O)(=O)c1cccc(-n2c(=O)n([C@H]3CC[C@@H](NC(=O)c4cc(CO)ccc4O)CC3)c(=O)c3cc(F)cnc32)c1 [Example 41, N-{cis-4-[6-fluoro-1-[3-(methylsulfonyl)phenyl]-2,4-dioxo-1,4-dihydropyrido[2,3-d]pyrimidin-3(2H)-yl]cyclohexyl}-2-hydroxy-5-(hydroxymethyl)benzamide] |
| 90.6 nM | CS(=O)(=O)c1cccc(-n2c(=O)n([C@H]3CC[C@@H](NC(=O)c4cc(Cl)ccc4O)CC3)c(=O)c3cc(F)cnc32)c1 [Example 40, 5-chloro-N-{cis-4-[6-fluoro-1-[3-(methylsulfonyl)phenyl]-2,4-dioxo-1,4-dihydropyrido[2,3-d]pyrimidin-3(2H)-yl]cyclohexyl}-2-hydroxybenzamide] |
| 2.1 nM | COC(=O)c1ccc(C(=O)N[C@H]2CC[C@@H](n3c(=O)c4cc(F)cnc4n(-c4ccc(F)c(F)c4)c3=O)CC2)cn1 [Example 50, methyl 5-[({cis-4-[1-(3,4-difluorophenyl)-6-fluoro-2,4-dioxo-1,4-dihydropyrido[2,3-d]pyrimidin-3(2H)-yl]cyclohexyl}amino)carbonyl]pyridine-2-carboxylate] |
| 0.996 nM | O=C(N[C@H]1CC[C@@H](n2c(=O)c3cc(F)cnc3n(-c3ccc(F)c(F)c3)c2=O)CC1)c1ccc2[nH]ccc2c1 [Example 85, N-{cis-4-[1-(3,4-difluorophenyl)-6-fluoro-2,4-dioxo-1,4-dihydropyrido[2,3-d]pyrimidin-3(2H)-yl]cyclohexyl}-1H-indole-5-carboxamide] |
| 3.89 nM | O=C(N[C@H]1CC[C@@H](n2c(=O)c3cc(F)cnc3n(-c3ccc(F)c(F)c3)c2=O)CC1)c1cc2nccnc2s1 [Example 106, N-{cis-4-[1-(3,4-difluorophenyl)-6-fluoro-2,4-dioxo-1,4-dihydropyrido[2,3-d]pyrimidin-3(2H)-yl]cyclohexyl}thieno[2,3-b]pyrazine-6-carboxamide] |
| 41.2 nM | CS(=O)(=O)c1cccc(-n2c(=O)n([C@H]3CC[C@@H](NC(=O)C4CC4)CC3)c(=O)c3cc(F)cnc32)c1 [Example 71, N-{cis-4-[6-fluoro-1-[3-(methylsulfonyl)phenyl]-2,4-dioxo-1,4-dihydropyrido[2,3-d]pyrimidin-3(2H)-yl]cyclohexyl}cyclopropanecarboxamide] |
| 4.4 nM | COC(=O)c1cccc(-n2c(=O)n([C@H]3CC[C@@H](NC(=O)C(C)(C)C)CC3)c(=O)c3cc(F)cnc32)c1 [Example 64, methyl 3-[3-{cis-4-[(2,2-dimethylpropanoyl)amino]cyclohexyl}-6-fluoro-2,4-dioxo-3,4-dihydropyrido[2,3-d]pyrimidin-1(2H)-yl]benzoate] |
